What was measured:
Assay type in all cases: biochemical
SHP1 = target: T1, SHP1 (Homo sapiens, UniProt P29350); experiment: Tyrosine phosphatase selectivity (pNPP substrate), SHP1; details: for IC50: SHP1, pNPP substrate; for IC50PTP/IC50SHP2 SHP1: selectivity ratio SHP1 over SHP2
T1 construct: made in house; host or cells: E. coli
Description: (§1) This experiment evaluated the selectivity of the disclosed compounds against tyrosine phosphatases, including SHP1, HePTP, Laforin, LMWPTP, LYP, PTP1B, PRL2, SSU72, VHR, FAP1, STEP, CDC14A, CD45, MEG2, and PP5, all expressed and purified from E. coli.
(§2) Phosphatase activity was measured using p-nitrophenyl phosphate (pNPP) (Fisher Scientific) as the substrate in 50 mM 3,3-dimethylglutaric acid buffer (pH 7.0, containing 1 mM EDTA), with ionic strength adjusted to 0.15 M with NaCl. […] After 10-60 minutes, the reaction was quenched by adding 20 µL of 5 N NaOH. Wells without enzyme were used as controls for correction. The amount of the product, p-nitrophenol, was determined by measuring the absorbance at 405 nm using a Spectra MAX340 microplate spectrophotometer (Molecular Devices), with a molar extinction coefficient of 18000 M^-1cm^-1.
(§3) Data were analyzed using GraphPad Prism software. Dose-response curves were obtained by fitting data using the nonlinear S-curve regression Dose-response-inhibition equation, and IC50 values were calculated.

HePTP = target: T2, HePTP (Homo sapiens, UniProt P35236); experiment: Tyrosine phosphatase selectivity (pNPP substrate), HePTP; details: for IC50: HePTP, pNPP substrate; for IC50PTP/IC50SHP2 HePTP: selectivity ratio HePTP over SHP2
T2 construct: made in house; host or cells: E. coli
T2 sequence (P35236 1-360): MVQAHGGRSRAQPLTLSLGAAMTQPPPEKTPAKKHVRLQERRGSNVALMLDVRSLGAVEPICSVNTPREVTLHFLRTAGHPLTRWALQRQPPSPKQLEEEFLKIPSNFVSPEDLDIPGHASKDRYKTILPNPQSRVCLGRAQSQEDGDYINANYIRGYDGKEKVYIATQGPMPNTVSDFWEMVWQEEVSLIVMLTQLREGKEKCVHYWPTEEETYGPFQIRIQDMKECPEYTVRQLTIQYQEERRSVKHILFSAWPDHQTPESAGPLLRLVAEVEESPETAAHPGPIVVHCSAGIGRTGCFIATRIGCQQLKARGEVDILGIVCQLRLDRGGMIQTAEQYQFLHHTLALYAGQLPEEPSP
Description: as §1, §2, §3

LMWPTP = target: T3, LMWPTP (Homo sapiens, UniProt P24666); experiment: Tyrosine phosphatase selectivity (pNPP substrate), LMWPTP; details: for IC50: LMPTP*, pNPP substrate; for IC50PTP/IC50SHP2 LMPTP*: selectivity ratio LMPTP* over SHP2
T3 construct: made in house; host or cells: E. coli
T3 sequence (P24666 1-158): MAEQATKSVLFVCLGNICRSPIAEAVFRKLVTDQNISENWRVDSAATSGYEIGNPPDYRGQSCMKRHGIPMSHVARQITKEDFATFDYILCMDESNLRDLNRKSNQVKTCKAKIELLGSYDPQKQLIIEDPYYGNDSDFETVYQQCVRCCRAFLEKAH
Description: as §1, §2, §3

PRL2 = target: T4, PRL2 (Homo sapiens, UniProt Q12974); experiment: Tyrosine phosphatase selectivity (pNPP substrate), PRL2; details: for IC50: PRL2, pNPP substrate; for IC50PTP/IC50SHP2 PRL2: selectivity ratio PRL2 over SHP2
T4 construct: made in house; host or cells: E. coli
T4 sequence (Q12974 1-167): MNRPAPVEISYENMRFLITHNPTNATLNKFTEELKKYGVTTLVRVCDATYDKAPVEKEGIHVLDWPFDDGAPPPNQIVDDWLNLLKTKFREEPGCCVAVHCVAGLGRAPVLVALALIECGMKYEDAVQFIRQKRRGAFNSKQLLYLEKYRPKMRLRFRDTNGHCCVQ
Description: as §1, §2, §3

FAP1 [1] = target: T5, FAP1 (Homo sapiens, UniProt Q12923); experiment: Tyrosine phosphatase selectivity (pNPP substrate), FAP1; details: FAP1, pNPP substrate
T5 sequence (Q12923 2163-2477): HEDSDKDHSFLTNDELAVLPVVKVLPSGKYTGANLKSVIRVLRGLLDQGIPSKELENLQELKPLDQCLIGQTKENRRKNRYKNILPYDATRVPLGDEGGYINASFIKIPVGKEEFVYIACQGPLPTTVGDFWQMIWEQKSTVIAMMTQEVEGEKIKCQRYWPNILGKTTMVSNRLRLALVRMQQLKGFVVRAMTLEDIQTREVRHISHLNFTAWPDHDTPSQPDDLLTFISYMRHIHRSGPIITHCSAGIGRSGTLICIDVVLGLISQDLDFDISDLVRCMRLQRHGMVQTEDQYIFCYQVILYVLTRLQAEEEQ
Description: as §1, §2, §3

FAP1 [2] = experiment: as above; details: selectivity ratio FAP1 over SHP2
Description: as §1, §2, §3

CDC14A = target: T6, CDC14A (Homo sapiens, UniProt Q9UNH5); experiment: Tyrosine phosphatase selectivity (pNPP substrate), CDC14A; details: for IC50: CDC14A, pNPP substrate; for IC50PTP/IC50SHP2 CDC14A: selectivity ratio CDC14A over SHP2
T6 construct: made in house; host or cells: E. coli
T6 sequence (Q9UNH5 1-594): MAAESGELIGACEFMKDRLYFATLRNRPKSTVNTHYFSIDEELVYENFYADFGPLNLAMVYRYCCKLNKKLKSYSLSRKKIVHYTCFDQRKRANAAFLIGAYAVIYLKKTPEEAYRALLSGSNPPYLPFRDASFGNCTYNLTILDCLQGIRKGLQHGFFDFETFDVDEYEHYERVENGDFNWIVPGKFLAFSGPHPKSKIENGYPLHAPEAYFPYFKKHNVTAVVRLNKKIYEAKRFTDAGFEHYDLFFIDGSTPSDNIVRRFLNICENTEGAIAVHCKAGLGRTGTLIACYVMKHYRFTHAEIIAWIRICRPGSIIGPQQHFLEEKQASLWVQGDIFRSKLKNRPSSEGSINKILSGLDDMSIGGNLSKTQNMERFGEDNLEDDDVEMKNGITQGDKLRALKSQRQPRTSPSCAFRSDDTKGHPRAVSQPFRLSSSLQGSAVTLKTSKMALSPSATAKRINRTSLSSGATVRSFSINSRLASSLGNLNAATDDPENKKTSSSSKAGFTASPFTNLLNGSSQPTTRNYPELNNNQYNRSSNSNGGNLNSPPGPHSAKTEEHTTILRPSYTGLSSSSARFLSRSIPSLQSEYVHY
Description: as §1, §2, §3

T1 sequence (P29350 whole entry): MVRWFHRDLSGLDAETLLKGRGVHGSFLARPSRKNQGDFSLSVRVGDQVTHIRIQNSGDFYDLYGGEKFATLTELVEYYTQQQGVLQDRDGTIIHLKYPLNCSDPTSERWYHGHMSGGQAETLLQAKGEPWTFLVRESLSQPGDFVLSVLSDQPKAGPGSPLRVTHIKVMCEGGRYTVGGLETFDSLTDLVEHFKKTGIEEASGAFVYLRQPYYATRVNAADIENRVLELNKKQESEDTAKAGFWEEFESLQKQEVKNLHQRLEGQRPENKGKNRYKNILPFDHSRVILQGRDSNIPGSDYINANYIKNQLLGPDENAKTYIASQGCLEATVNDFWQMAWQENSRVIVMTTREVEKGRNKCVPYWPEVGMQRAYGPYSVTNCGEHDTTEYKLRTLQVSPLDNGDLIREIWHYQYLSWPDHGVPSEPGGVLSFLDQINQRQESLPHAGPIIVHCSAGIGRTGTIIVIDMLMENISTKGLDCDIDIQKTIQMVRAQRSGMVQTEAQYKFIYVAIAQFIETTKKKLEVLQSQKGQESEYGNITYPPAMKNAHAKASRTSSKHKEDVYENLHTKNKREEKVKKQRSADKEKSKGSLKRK

IC50 (SHP1) [nM]	IC50PTP/IC50SHP2 SHP1 (SHP1)	IC50 (HePTP) [nM]	IC50PTP/IC50SHP2 HePTP (HePTP)	IC50 (LMWPTP) [nM]	IC50PTP/IC50SHP2 LMPTP* (LMWPTP)	IC50 (PRL2) [µM]	IC50PTP/IC50SHP2 PRL2 (PRL2)	IC50 (FAP1 [1]) [µM]	IC50PTP/IC50SHP2 FAP1 (FAP1 [2])	IC50 (CDC14A) [µM]	IC50PTP/IC50SHP2 CDC14A (CDC14A)	SMILES
800	30.8	6100	234.6	> 20000	769.2	> 50	1923.1	11	423.1	> 50	1923.1	O=C(Nc1ccc(-c2ccsc2)cc1)C(=O)Nc1ccc(-c2cc3cnc(-c4nnn[nH]4)nc3n2C2CCC2)cc1 [Example 131]
320	2.3	1330	9.4	2480	17.6	> 100	709.2	7.3	51.8	> 100	709.2	Cn1cc(-c2ccc(NC(=O)C(=O)Nc3ccc(-c4cc5cc(F)c(-c6noc(=O)[nH]6)cc5n4C4CCC4)cc3)cc2)cn1 [Example 123]
110	3.2	950	27.9	1370	40.2	> 100	2941	2.34	68.8		2941	O=C(Nc1ccc(-c2cc3cc(F)c(-c4nnn[nH]4)cc3n2C2CCC2)cc1)C(=O)Nc1ccc(N2CCC3(CCOC3)CC2)cc1 [Example 67]
